The values below come from patent publication US20230145868A1, “UREA INHIBITORS OF MICRO-RNA” (Board of Regents, The University of Texas System, priority 2020, published 2023).

The subject of the assay is U251, LN229, AGS, AsPC1 cell lines. The assay is described as follows: Cell viability IC50 dose-response curves. Format: cell-based, human. The following applies: majority of cell lines (U251, LN229, AGS, AsPC1); values not given. Here is the method: IC50 dose-response curves were determined using the cell proliferation assay system. Briefly, 5,000 or 10,000 cells of each cell line were plated in 96-well microculture plates in replicates of either 4 or 6. When cells became adherent, either 5 or 10 sequentially decreasing doses of the small molecule miRNA inhibitor were diluted into new media and added to individual wells. After either 24 or 48 hours, of a tetrazolium salt such as MTS, MTT, or WST-8 was added to each well at the same time of day as treatment and incubated for either 2 or 3 h at 37° C. The OD, measuring at the appropriate wavelength for the dye, was read at on a microplate spectrophotometer.

As to `Cc1ccc(F)c(NC(=O)Nc2ccc(-c3cccc4cn[nH]c34)cc2)c1` [Example 4, 1-(4-(1H-indazol-7-yl)phenyl)-3-(2-fluoro-5-methylphenyl)urea], the “IC50 at 48 h compared with IC50 at 24 h” value is listed as “lower than the corresponding IC50 value at 24 h”.
